PMC3230241 (Nature biotechnology, 2011)

Molecular target: MRCKα (Homo sapiens, UniProt Q5VT25)
Assay: HotSpot radiometric kinase assay, MRCKα
Assay type: biochemical
Settings: compound 0.5 μM, 10 μM ATP

Sequence of MRCKα (Q5VT25 1-473): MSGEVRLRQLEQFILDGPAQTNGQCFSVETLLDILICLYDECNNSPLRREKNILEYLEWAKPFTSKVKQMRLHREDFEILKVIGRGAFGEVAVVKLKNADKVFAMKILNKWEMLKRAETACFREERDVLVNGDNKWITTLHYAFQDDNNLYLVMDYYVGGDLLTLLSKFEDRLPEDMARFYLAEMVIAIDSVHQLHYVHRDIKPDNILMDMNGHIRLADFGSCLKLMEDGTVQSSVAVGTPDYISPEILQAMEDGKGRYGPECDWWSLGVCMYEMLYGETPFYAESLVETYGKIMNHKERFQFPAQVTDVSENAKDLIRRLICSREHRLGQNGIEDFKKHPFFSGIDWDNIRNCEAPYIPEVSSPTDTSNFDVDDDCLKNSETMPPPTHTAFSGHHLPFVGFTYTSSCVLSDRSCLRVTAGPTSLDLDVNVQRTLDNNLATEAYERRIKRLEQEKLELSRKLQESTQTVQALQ

inhibition of MRCKα (next most potent target): 22%
SMILES: O=C(Nc1cccc(Nc2cc(Nc3cccc(C(F)(F)F)c3)ncn2)c1)C1CC1 [EGFR Inhibitor]
